Values after ≈ are worked out from the molar mass of the structure shown.
Columns and labels:
[1] = target: cGMP-dependent protein kinase 1 (Homo sapiens, UniProt Q13976); test: Inhibition of PKG1A (unknown origin) after 60 mins by TR-FRET assay
[2] = target: T1, Tyrosine-protein kinase SYK (Homo sapiens, UniProt P43405)
Description: Inhibition of Syk (unknown origin) after 60 mins by TR-FRET assay

[3] = target: T2, Serine/threonine-protein kinase TAO2 (Homo sapiens, UniProt Q9UL54); test: Inhibition of TAOK2 (unknown origin) after 60 mins by TR-FRET assay
T2 sequence (Q9UL54 whole entry): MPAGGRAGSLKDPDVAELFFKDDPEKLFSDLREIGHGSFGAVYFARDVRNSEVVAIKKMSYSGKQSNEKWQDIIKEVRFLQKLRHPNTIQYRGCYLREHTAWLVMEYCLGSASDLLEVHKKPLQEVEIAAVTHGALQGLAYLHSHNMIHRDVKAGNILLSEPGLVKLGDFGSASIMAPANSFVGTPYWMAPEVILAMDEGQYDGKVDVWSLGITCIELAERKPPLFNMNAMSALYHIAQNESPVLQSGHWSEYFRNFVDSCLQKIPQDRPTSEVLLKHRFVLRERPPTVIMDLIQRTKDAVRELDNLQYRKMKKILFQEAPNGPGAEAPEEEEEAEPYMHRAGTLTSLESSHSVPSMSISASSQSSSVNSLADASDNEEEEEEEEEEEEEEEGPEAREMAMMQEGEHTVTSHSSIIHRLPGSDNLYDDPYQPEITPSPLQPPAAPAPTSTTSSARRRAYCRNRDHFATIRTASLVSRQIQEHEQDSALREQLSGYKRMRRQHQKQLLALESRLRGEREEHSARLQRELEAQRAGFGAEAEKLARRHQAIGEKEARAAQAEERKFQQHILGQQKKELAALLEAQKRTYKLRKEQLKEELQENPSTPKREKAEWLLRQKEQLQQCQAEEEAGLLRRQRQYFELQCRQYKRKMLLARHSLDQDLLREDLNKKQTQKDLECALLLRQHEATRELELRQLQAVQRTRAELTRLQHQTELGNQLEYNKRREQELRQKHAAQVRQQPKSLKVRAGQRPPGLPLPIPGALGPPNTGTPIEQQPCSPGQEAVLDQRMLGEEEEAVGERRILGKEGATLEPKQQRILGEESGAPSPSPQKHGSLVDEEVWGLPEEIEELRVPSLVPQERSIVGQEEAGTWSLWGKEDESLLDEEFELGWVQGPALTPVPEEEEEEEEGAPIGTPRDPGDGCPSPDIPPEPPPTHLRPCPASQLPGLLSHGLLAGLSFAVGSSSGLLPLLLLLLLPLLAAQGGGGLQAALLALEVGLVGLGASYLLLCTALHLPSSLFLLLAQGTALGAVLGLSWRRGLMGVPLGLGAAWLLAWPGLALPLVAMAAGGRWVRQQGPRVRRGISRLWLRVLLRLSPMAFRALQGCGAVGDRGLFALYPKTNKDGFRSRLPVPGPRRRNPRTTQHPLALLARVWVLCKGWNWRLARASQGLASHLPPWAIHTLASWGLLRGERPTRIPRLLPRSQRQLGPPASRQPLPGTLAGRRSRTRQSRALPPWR

[4] = target: T3, Serine/threonine-protein kinase Nek2 (Homo sapiens, UniProt P51955); test: Inhibition of NEK2 (unknown origin) after 60 mins by TR-FRET assay
T3 sequence (P51955 whole entry): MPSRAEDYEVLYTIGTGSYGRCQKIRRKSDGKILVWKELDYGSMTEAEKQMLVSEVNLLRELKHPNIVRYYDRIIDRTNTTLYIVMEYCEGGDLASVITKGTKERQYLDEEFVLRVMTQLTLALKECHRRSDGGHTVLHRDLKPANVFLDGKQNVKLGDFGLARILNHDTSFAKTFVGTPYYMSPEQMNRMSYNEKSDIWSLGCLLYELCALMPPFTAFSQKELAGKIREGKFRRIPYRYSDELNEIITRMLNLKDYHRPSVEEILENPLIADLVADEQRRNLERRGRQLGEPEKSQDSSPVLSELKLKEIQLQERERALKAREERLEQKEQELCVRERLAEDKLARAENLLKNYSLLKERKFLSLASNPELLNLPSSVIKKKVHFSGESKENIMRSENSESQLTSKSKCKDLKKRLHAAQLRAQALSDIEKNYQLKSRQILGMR

[5] = target: T1, Tyrosine-protein kinase SYK; remark: listed apart in the source
Description: Inhibition of C-terminal His-tagged Syk catalytic domain (356 to 635 residues) (unknown origin) using biotin-TYR1 as substrate after 60 mins by TR-FRET assay

[6] = target: T4, Dual specificity protein kinase TTK (Homo sapiens, UniProt P33981); test: Inhibition of TTK (unknown origin) after 60 mins by TR-FRET assay
T4 sequence (P33981 whole entry): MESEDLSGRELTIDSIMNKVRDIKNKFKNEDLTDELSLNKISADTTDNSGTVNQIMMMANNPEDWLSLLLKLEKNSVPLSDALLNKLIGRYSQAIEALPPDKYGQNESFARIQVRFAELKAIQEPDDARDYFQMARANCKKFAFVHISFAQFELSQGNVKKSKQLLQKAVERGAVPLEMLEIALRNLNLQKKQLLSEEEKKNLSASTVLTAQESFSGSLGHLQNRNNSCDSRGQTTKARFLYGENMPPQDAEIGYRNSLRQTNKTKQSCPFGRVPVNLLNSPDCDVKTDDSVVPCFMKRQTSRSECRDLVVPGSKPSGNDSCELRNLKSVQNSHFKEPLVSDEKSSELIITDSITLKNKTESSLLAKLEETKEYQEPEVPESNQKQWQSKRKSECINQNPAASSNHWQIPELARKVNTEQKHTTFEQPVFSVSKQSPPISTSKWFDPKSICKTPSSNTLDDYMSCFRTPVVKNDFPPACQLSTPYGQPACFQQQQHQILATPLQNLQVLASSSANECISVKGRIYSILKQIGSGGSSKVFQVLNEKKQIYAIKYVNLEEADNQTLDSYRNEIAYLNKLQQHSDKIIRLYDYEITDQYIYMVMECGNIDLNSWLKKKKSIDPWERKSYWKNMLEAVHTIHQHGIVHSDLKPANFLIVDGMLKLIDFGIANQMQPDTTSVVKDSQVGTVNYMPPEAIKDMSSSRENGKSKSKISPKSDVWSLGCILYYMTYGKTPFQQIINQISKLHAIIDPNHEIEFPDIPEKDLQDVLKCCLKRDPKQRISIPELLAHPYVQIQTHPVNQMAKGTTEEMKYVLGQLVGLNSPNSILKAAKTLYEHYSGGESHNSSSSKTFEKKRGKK

[7] = target: Rho-associated protein kinase 2 (Homo sapiens, UniProt O75116); test: Inhibition of ROCK2 (unknown origin) after 60 mins by TR-FRET assay
[8] = target: Serine/threonine-protein kinase B-raf (Homo sapiens, UniProt P15056); test: Inhibition of BRAF (unknown origin) after 60 mins by TR-FRET assay
[9] = Inhibition of CDK11 (unknown origin) after 60 mins by TR-FRET assay; parameters: species or system Homo sapiens
[10] = Unbound clearance in human microsomes; assay type: ADME, Microsome
[11] = Unbound clearance in rat microsomes; assay type: ADME, Microsome
[12] = Solubility in pH 5 FeSSIF at 0.2 mg sonicated for 10 mins followed by incubation for 2 days by HPLC analysis; assay type: physicochemical
[13] = Volume of distribution at steady state in dog at 1 mg/kg, iv; assay type: ADME, organism-based, Canis lupus familiaris; settings: in vivo, read-out: Vdss
[14] = Oral bioavailability in rat at 1 mg/kg; assay type: ADME, organism-based; settings: in vivo
[15] = AUC in dog at 1 mg/kg, po; assay type: ADME, organism-based, Canis lupus familiaris; settings: in vivo
[16] = Clearance in rat at 1 mg/kg, iv; assay type: ADME, organism-based; settings: in vivo
Rattus norvegicus [17] = test: Antiarthritic activity in po dosed rat model of collagen-induced arthritis assessed as inhibition of paw swelling administered bid for 8 days; settings: 192 h
[18] = target: Voltage-gated inwardly rectifying potassium channel KCNH2 (Homo sapiens, UniProt Q12809); test: Inhibition of human ERG
Rattus norvegicus [19] = test: Antiarthritic activity in rat model of collagen-induced arthritis assessed as inhibition of paw swelling at 1 mg/kg, bid for 8 days relative to control; assay type: functional; settings: 192 h
Rattus norvegicus [20] = test: Toxicity in rat model of collagen-induced arthritis at 0.3 to 30 mg/kg, po bid for 8 days; assay type: organism-based; settings: in vivo, 192 h
[21] = Oral bioavailability in dog at 1 mg/kg; assay type: ADME, organism-based, Canis lupus familiaris; settings: in vivo
Rattus norvegicus [22] = test: Antiarthritic activity in po dosed rat model of collagen-induced arthritis assessed as inhibition of paw swelling administered bid for 8 days measured on day 8 up to 12 hrs; assay type: functional
[23] = Half life in dog at 1 mg/kg, iv; assay type: ADME, organism-based, Canis lupus familiaris; settings: in vivo
Rattus norvegicus [24] = test: Antiarthritic activity in rat model of collagen-induced arthritis assessed as inhibition of paw swelling at 0.3 mg/kg, bid for 8 days relative to control; assay type: functional; settings: 192 h
[25] = Cmax in rat at 1 mg/kg, po; assay type: ADME, organism-based; parameters: dose 1 mg/kg, route oral; settings: in vivo
[26] = Half life in rat at 1 mg/kg, iv; assay type: ADME, organism-based; settings: in vivo
[27] = AUC in rat at 1 mg/kg, po; assay type: ADME, organism-based; settings: in vivo
[28] = Clearance in dog at 1 mg/kg, iv; assay type: ADME, organism-based, Canis lupus familiaris; settings: in vivo
Rattus norvegicus [29] = test: Antiarthritic activity in rat model of collagen-induced arthritis assessed as inhibition of paw swelling at 3 mg/kg, bid for 8 days relative to control; assay type: functional; settings: 192 h
[30] = Volume of distribution at steady state in rat at 1 mg/kg, iv; assay type: ADME, organism-based; settings: in vivo, read-out: Vdss
Rattus norvegicus [31] = test: Antiarthritic activity in rat model of collagen-induced arthritis assessed as inhibition of paw swelling at 10 mg/kg, bid for 8 days relative to control; assay type: functional; settings: 192 h
[32] = Cytotoxicity against human HepG2 cells; assay type: cell-based
Rattus norvegicus [33] = test: Antiarthritic activity in rat model of collagen-induced arthritis assessed as inhibition of paw swelling at 30 mg/kg, bid for 8 days relative to control; assay type: functional; settings: 192 h
[34] = Cmax in dog at 1 mg/kg, po; assay type: ADME, organism-based, Canis lupus familiaris; parameters: dose 1 mg/kg, route oral; settings: in vivo
Cytochrome P450 3A4 = Cytochrome P450 3A4 (Homo sapiens, UniProt P08684); test: Time-dependent inhibition of CYP3A4 in human liver microsomes at 10 to 50 uM; assay type: ADME
Chain of Cytochrome P450 3A4 (P08684 whole entry): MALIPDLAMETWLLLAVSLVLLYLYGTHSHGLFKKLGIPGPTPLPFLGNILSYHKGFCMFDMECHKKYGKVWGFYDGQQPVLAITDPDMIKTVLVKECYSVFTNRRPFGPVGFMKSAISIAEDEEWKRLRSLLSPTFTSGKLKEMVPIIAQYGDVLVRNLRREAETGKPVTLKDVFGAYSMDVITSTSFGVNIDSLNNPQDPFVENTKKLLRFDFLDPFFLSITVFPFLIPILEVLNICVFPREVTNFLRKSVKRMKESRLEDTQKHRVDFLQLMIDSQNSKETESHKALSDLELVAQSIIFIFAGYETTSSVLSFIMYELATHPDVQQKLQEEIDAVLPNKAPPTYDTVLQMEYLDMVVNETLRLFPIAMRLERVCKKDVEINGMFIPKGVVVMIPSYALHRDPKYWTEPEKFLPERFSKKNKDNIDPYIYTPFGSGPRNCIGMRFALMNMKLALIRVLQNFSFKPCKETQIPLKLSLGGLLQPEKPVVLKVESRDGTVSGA

Chain of Voltage-gated inwardly rectifying potassium channel KCNH2 (Q12809 whole entry): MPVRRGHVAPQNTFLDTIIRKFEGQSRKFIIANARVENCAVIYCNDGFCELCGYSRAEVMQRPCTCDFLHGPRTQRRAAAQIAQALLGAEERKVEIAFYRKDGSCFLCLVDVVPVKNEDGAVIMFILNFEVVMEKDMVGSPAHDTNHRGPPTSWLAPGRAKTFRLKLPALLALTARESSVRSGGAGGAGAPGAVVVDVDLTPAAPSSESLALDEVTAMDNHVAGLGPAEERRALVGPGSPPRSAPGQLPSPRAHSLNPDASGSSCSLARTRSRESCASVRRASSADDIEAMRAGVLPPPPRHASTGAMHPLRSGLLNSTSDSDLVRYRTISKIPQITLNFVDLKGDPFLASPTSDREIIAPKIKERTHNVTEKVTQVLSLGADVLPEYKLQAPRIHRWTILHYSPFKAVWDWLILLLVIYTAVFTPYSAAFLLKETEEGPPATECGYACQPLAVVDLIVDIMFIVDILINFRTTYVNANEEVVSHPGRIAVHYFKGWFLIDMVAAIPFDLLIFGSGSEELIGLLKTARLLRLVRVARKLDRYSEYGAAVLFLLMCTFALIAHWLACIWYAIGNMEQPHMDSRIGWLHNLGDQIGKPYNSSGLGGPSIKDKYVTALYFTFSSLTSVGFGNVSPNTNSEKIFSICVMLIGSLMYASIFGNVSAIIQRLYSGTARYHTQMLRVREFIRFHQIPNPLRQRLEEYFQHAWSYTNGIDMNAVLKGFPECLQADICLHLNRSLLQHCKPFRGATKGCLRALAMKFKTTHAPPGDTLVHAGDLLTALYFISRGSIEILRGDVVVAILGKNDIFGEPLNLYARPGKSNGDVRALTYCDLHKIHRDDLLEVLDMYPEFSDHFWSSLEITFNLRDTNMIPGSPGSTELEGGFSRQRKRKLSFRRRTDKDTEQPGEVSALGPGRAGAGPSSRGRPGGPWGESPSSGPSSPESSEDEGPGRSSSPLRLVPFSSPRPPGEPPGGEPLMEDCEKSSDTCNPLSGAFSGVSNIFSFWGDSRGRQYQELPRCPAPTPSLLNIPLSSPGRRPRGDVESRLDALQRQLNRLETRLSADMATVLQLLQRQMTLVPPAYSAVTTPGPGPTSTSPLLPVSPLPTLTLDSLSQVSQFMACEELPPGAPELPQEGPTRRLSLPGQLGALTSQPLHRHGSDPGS
Chain of Serine/threonine-protein kinase B-raf (P15056 whole entry): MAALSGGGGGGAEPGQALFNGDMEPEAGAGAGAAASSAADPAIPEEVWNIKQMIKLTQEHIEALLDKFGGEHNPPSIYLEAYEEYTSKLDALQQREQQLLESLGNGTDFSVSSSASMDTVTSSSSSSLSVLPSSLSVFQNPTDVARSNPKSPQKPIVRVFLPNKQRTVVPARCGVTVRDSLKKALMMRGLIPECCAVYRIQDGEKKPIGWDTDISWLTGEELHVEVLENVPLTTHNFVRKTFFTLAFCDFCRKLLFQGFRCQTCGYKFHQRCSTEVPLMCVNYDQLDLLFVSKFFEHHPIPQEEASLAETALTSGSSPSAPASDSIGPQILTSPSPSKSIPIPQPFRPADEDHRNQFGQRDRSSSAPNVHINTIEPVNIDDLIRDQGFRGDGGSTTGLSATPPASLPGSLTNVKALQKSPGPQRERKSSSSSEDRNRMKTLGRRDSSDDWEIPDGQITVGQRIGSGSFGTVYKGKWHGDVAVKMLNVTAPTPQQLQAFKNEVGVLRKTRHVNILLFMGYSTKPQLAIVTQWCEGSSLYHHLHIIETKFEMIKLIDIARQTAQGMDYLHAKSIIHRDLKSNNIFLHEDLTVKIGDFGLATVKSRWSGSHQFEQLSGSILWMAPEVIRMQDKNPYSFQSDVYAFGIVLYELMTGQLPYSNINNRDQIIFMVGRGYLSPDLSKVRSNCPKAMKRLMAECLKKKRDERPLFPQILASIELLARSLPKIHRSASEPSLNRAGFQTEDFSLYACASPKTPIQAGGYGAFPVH
Chain of Rho-associated protein kinase 2 (O75116 whole entry): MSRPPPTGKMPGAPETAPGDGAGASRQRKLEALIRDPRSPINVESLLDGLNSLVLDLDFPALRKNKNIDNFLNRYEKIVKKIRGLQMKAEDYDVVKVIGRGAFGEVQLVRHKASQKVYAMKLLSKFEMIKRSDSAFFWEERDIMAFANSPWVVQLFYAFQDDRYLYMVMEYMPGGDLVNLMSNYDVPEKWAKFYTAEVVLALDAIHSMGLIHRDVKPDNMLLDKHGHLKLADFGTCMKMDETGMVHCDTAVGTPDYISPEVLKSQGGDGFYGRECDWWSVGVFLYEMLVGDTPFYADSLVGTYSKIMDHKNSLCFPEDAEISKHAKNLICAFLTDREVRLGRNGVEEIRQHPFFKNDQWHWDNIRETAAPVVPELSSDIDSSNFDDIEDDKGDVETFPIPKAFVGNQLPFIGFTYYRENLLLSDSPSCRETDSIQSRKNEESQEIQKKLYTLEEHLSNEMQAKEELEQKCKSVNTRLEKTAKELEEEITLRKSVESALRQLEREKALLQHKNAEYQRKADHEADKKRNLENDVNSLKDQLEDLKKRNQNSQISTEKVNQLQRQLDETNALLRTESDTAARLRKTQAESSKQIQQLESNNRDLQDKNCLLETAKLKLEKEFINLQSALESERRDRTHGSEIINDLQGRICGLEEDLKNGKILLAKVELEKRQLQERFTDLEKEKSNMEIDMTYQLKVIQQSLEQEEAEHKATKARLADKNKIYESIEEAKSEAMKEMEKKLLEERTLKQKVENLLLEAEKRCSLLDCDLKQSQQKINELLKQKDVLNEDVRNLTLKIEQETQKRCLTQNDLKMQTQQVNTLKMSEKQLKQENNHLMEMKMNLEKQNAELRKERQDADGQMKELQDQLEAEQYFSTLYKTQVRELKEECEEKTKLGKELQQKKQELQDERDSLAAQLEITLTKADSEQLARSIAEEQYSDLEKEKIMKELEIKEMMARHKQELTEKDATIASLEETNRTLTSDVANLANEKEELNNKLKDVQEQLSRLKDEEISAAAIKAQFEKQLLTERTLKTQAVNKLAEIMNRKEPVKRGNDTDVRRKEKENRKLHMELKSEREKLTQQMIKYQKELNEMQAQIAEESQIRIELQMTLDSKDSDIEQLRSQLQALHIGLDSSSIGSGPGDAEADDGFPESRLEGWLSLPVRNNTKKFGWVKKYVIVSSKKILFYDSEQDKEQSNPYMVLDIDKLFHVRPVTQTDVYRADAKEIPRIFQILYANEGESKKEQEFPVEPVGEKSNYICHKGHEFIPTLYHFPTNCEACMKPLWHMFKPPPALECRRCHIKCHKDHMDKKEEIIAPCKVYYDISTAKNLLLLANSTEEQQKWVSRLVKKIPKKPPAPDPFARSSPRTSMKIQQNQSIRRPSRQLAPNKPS
Chain of cGMP-dependent protein kinase 1 (Q13976 whole entry): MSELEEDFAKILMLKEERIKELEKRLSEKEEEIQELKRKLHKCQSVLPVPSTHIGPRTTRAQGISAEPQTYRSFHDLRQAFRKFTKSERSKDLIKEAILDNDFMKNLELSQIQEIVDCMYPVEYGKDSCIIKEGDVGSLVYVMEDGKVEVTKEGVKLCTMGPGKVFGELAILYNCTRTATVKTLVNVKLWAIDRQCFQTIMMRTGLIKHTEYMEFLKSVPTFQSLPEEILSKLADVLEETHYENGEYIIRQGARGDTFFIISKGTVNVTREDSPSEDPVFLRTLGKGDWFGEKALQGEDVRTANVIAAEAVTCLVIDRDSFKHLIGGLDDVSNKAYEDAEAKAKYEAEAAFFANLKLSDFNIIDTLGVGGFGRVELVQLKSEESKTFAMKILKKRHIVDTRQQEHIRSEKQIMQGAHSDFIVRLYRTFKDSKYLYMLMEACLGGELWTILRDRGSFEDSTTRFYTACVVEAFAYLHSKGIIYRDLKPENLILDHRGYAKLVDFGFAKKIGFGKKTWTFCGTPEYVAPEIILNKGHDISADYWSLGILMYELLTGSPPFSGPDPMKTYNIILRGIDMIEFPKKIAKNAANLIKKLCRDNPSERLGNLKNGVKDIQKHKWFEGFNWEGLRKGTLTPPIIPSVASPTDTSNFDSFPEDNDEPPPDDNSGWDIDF

In the case of `CCCNC(=O)c1ccc(Nc2nc(NCC(F)(F)F)c3cc[nH]c3n2)cc1`, the IC50 [1] is reported as > 10 µM, the IC50 [2] is reported as 0.008 µM and the IC50 [3] is reported as 0.529 µM. For the same molecule, the IC50 [4] was > 10 µM, the IC50 [5] was 0.017 µM and the IC50 [6] was 0.991 µM. For the same molecule, the IC50 [7] was 0.248 µM, the IC50 [8] was > 10 µM and the IC50 [9] was > 10 µM.
Molecule `COC(=O)N[C@H]1CC(C)(C)c2ccc(Nc3nc(NC4CC4)c4occc4n3)cc2NC1=O` has a CL free [10] of 7.1 L/h/kg and a CL free [11] of 19.9 L/h/kg.
With `CC1(C)Oc2ccc(Nc3nc(NCC(F)(F)F)c4occc4n3)cc2NC1=O` the CL free [11] was 10.6 L/h/kg.
In the case of `CCCNc1nc(Nc2ccc3c(c2)NC(=O)COC3(C)C)nc2ccoc12`, the CL free [10] is reported as 18.4 L/h/kg, the solubility at 48 h [12] is reported as > 200 µM and the CL free [11] is reported as 22.4 L/h/kg.
Molecule `COC(=O)N[C@@H]1CC(C)(C)c2ccc(Nc3nc(NC4CC4)c4occc4n3)cc2NC1=O` has a CL free [10] of 7.4 L/h/kg, a solubility at 48 h [12] of 27 µM (≈ 12.2 µg/mL) and a CL free [11] of 10.9 L/h/kg.
With `COC(=O)N[C@@H]1CC(C)(C)c2ccc(Nc3nc(NCC(F)F)c4occc4n3)cc2NC1=O` the Vd [13] was 2.3 L/kg, the bioavailability [14] was 27% and the CL free [10] was < 2.3 L/h/kg. The AUC [15] was 2.34 µg·h/mL, the clearance [16] was 1.7 L/h/kg and the ED50 (Rattus norvegicus [17]) was 9 mg/kg. For the same molecule, the IC50 [18] was > 20 µM, the inhibition in vivo at 1 mg/kg (Rattus norvegicus [19]) was 21% and the solubility at 48 h [12] was > 67 µM. The Activity (Rattus norvegicus [20]) was “Non-Toxic”, the bioavailability [21] was 40% and the EAUC50 (Rattus norvegicus [22]) was 3.9 µg·h/mL. For the same molecule, the half-life [23] was 9.9 h, the inhibition in vivo at 0.3 mg/kg (Rattus norvegicus [24]) was 21% and the Cmax [25] was 0.036 µg/mL. For the same molecule, the half-life [26] was 2 h, the AUC [27] was 0.18 µg·h/mL and the clearance [28] was 0.17 L/h/kg. The CL free [11] was 10.6 L/h/kg, the inhibition in vivo at 3 mg/kg (Rattus norvegicus [29]) was 28% and the Vd [30] was 4.6 L/kg. For the same molecule, the inhibition in vivo at 10 mg/kg (Rattus norvegicus [31]) was 75%, the IC20 [32] was > 10 µM and the inhibition in vivo at 30 mg/kg (Rattus norvegicus [33]) was 95%. For the same molecule, the Cmax [34] was 0.151 µg/mL and the TDI (Cytochrome P450 3A4) was “Not Active”.

— ChEMBL document CHEMBL4007384, “Synthesis and optimization of furano[3,2-d]pyrimidines as selective spleen tyrosine kinase (Syk) inhibitors” (Bioorg Med Chem Lett, 2016)
